US20100210649A1, “PYRIDAZINONES AND FURAN-CONTAINING COMPOUNDS” (Sloan-Kettering Institute for Cancer Research, priority 2006, published 2010)
Values joined by “and” are separate entries in the source; they are usually repeats but may differ in a detail not shown here. Identical values can stand only once. Like-named read-outs stand apart in the source and are kept apart here.

How the values were obtained:
H460 = assay: Dose response study (Alamar Blue), H460; type: cell-based; conditions: Homo sapiens, read-out: IC50 H460
Method: (§1) Dose response studies against 34 compounds from the pyridazinone and phenylfuran-carboxamide class were conducted. […] In addition, Tarceva was included in these dose response studies.
(§2) The dose response studies were done with the following standard procedure. First, the cells were counted and dispensed at 250 cells/well into 384-well microplates with compound. The cells were incubated for 48 hours at 37 C to complete treatment, and then alamar blue was added for an additional 48 hours. Finally, alamar blue reduction was measured and the data was loaded into ORIS, our data screening acquisition platform.

H1734 = assay: Non Small Cell Lung Cancer proliferation assay (Alamar Blue reduction), H1734; type: cell-based, human
In short: (§3)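 Dose-response run: cells were counted, dispensed at 250 cells/well onto compound, incubated 48 hours at 37° C, then incubated with Alamar Blue for an additional 48 hours before fluorescence measurement. All wells held 1% DMSO final.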

H3255 = assay: Non Small Cell Lung Cancer proliferation assay (Alamar Blue reduction), H3255; type: cell-based, human; conditions: for inhibition at 10 µM: NCI-H3255, primary screening
In short: as §3

[1] = tested on: HPL1D (human peripheral lung epithelial) cell line; assay: Cell proliferation / dose response (Alamar Blue), HPL1D; type: cell-based; conditions: read-out: IC50 HPL1D
Method: WI-38: human lung fibroblast cell line. […] WT: wildtype; WT*: over-expressed wildtype. Dose response studies against 34 compounds from the pyridazinone and phenylfuran-carboxamide class were conducted. […] In addition, Tarceva was included in these dose response studies. The dose response studies were done with the following standard procedure. […] The cells were incubated for 48 hours at 37 C to complete treatment, and then alamar blue was added for an additional 48 hours. Finally, alamar blue reduction was measured and the data was loaded into ORIS, our data screening acquisition platform.

PC9 = assay: Dose response study (Alamar Blue), PC9; type: cell-based; conditions: Homo sapiens, read-out: IC50 PC9
Method: as §1, §2

H1118 = assay: Non Small Cell Lung Cancer proliferation assay (Alamar Blue reduction), H1118; type: cell-based
[2] = NCI-H460, H460, 12 point doubling dilution 10 uM to 5 nM, 48 h treatment, alamar blue additional 48 h
[3] = Homo sapiens, NCI-H1734, H1734, 12 point doubling dilution 10 uM to 5 nM, 48 h treatment, alamar blue additional 48 h, read-out: IC50 H1734
[4] = Homo sapiens, NCI-H1734, read-out: Dose Response (uM) H1734
[5] = Homo sapiens, NCI-H3255, 48 h, H3255, 12 point doubling dilution 10 uM to 5 nM, 48 h treatment, alamar blue additional 48 h, read-out: IC50 H3255
[6] = Homo sapiens, NCI-H3255, dose response 10 M to 5 nM, IC50, read-out: Dose Response (uM) H3255
[7] = HPL1D, 12 point doubling dilution 10 uM to 5 nM, 48 h treatment, alamar blue additional 48 h
[8] = PC-9, PC9, 12 point doubling dilution 10 uM to 5 nM, 48 h treatment, alamar blue additional 48 h
[9] = Homo sapiens; H1118; 12 point doubling dilution 10 uM to 5 nM; 48 h treatment, alamar blue additional 48 h; read-out: IC50 H1118
[10] = Homo sapiens, NCI-H1734, 48 h, H1734, 12 point doubling dilution 10 uM to 5 nM, 48 h treatment, alamar blue additional 48 h, read-out: IC50 H1734
[11] = Homo sapiens, 48 h, read-out: IC50 H1118
[12] = Homo sapiens, NCI-H1734, dose response 10 M to 5 nM, IC50, read-out: Dose Response (uM) H1734
[13] = Homo sapiens, read-out: Dose Response (uM) H1118
[14] = Homo sapiens; read-out: Dose Response (uM) H1118

IC50 (H460; [2]) [nM] | IC50 (H1734; [3]) [µM] | IC50 (H1734; [4]) [µM] | IC50 (H3255; [5]) [µM] | IC50 (H3255; [6]) [µM] | IC50 (PC9; [8]) [nM] | IC50 (H1118; [9]) [µM] | SMILES | IC50 [1, 7] [nM] | further results
420 | 1.23 | 0.72 | 0.45 | 0.66 | 420 | 0.1 | O=c1c(Br)c(Br)cnn1-c1ccccn1 [compound 267073] | 110 | 
1430 | 1.72 | 0.8 | 0.76 | 0.81 | 860 | 0.41 | Cc1cccc(-n2ncc(Br)c(Br)c2=O)c1 [compound 267071] | 240 | 
1470 | 1.23 | 0.93 | 0.99 | 1.11 | 970 | 0.57 | NCCCOc1cccc(-n2ncc(Br)c(Br)c2=O)c1 [compound 273634] | 350 | 
910 | 1.36 | 1.31 | 0.65 | 0.35 | 740 | 0.27 | COc1cccc(-n2ncc(Br)c(Br)c2=O)c1 [compound 267083] | 220 | 
> 10000 | > 10 | 1.21 | > 10 | 2.47 | > 10000 | > 10 | Cc1cc(-n2ncc(Cl)c(Cl)c2=O)ccc1Br [compound 267064] | 4720 | 
1970 | 2.83 | 2.12 | 1.23 | 1.2 | 880 | 0.48 | O=c1c(Cl)c(Cl)cnn1-c1ccc2c(c1)OCCO2 [compound 267068] | 420 | 
> 10000 | > 10 | 6.86 | > 10 | 6.5 | 6210 | 3.21 | O=c1c(Cl)c(Cl)cnn1Cc1ccccc1 [compound 267069] | 5250 | 
1630 | 3.04 | 2.41 | 1.2 | 1.34 | 850 | 0.4 | COc1cccc(-n2ncc(Cl)c(Cl)c2=O)c1 [compound 267061] | 290 | 
> 10000 | > 10 | 2.69 | > 10 | 3.1 | > 10000 | > 10 | Cc1ccc(-n2ncc(Cl)c(Cl)c2=O)cc1Cl [compound 267070] | > 10000 | 
890 | 1.5 | 1.63 | 0.71 | 0.38 | 680 | 0.23 | COCCOc1cccc(-n2ncc(Br)c(Br)c2=O)c1 [compound 267084] | 180 | 
5230 | 3.87 | 2.42 | 2.38 | 1.76 | 2400 | 1.1 | COc1nn(-c2cccc(C)c2)c(=O)c(Cl)c1Cl [compound 257028] | 1930 | 
2930 | 2.62 | 1.83 | 1.35 | 0.92 | 1550 | 0.58 | Cc1cc(C)cc(-n2ncc(Cl)c(Cl)c2=O)c1 [compound 257020] | 410 | IC50 (H1118; [14]): 0.34 µM
4260 | 5.23 | 1.6 | 2.29 | 2.27 | 3490 | 1.66 | O=c1c(Cl)c(Cl)cnn1-c1ccc(C(F)(F)F)cc1 [compound 267060] | 560 | 
3490 | 2.99 | 1.94 | 2.13 | 0.71 | 2240 | 1.03 | Cc1cccc(-n2ncc(I)c(I)c2=O)c1 [compound 267085] | 680 | 
2550 | 3.22 | 3.37 | 1.53 | 1.32 | 1130 | 0.54 | Cc1ccc(-n2ncc(Cl)c(Cl)c2=O)cc1 [compound 257016] | 480 | IC50 (H1118; [14]): 0.38 µM

SMILES | IC50 (H460; [2]) [nM] | IC50 (H1734; [3]) [µM] | IC50 (H1734; [4]) [µM] | IC50 (H3255; [5]) [µM] | IC50 (H3255; [6]) [µM] | IC50 (PC9; [8]) [nM] | IC50 (H1118; [9]) [µM] | IC50 [1, 7] [nM] | further results
O=C(Nc1ccc(Cl)cc1)c1ccc([N+](=O)[O-])o1 [compound 98698, 5-nitro-furan-2-carboxylic acid (4-chloro-phenyl)-amide] |  |  |  | 1.77 |  |  |  |  | IC50 (H460; NCI-H460, 48 h): 1620 nM; IC50 (H1734; [10]): 3.47 µM; IC50 (H3255; Homo sapiens, NCI-H3255, phenylfuran-2-carboxamide SAR summary, read-out: IC50(uM) 3255): 0.95 µM; inhibition at 10 µM (H3255; Homo sapiens, H3255, 10 μM compound in 1% DMSO (v/v), read-out: PRIMARY HTS [%] H3255 (percentage inhibition)): 20%; CONFIRMATION [%] 3255 (H3255; percentage inhibition, 10 μM compound in 1% DMSO (v/v)): 118%; IC50 ([1]; 48 h): > 10000 nM; IC50 (PC9; PC-9, 48 h): 1580 nM; IC50 (H1118; [11]): 0.53 µM
Cc1cccc(-n2ncc(Cl)c(Cl)c2=O)c1 [compound 104122, 4,5-dichloro-2-m-tolyl-2H-pyridazin-3-one] |  |  |  | 0.87 |  |  |  |  | IC50 (H460; NCI-H460, 48 h): 1560 nM; IC50 (H1734; [10]): 2.14 µM; IC50 (H1734; [12]): 2.17 µM; IC50 (H1734; dose response 10 M to 5 nM, IC50, read-out: Dose Response (uM) H1734): 1.17 µM and 2.21 µM and 1.73 µM; inhibition at 10 µM (H3255; Homo sapiens, 10 μM compound in 1% DMSO (v/v), read-out: percentage inhibition H3255): 98%; IC50 (H3255; dose response 10 M to 5 nM, IC50, read-out: Dose Response (uM) H3255): 0.38 µM; IC50 ([1]; 48 h): 280 nM; IC50 (PC9; PC-9, 48 h): 650 nM; IC50 (H1118; [11]): 0.34 µM; IC50 (H1118; [13]): 0.11 µM
O=c1c(Cl)c(Cl)cnn1-c1ccccc1 [compound 257014] |  |  |  | 1.5 | 1.36 |  |  |  | IC50 (H460; NCI-H460, 48 h): 2010 nM; IC50 (H1734; [10]): 2.28 µM; IC50 (H1734; [12]): 4.11 µM; IC50 ([1]; 48 h): 380 nM; IC50 (PC9; PC-9, 48 h): 830 nM; IC50 (H1118; [11]): 0.45 µM; IC50 (H1118; [13]): 0.27 µM
